# Legend:
# Coniophora puteana = test: Inhibitory test with giant colonies of Basidiomycetes (Coniophora puteana); type: cell-based; settings: after 3 or 7 days at 26° C., vs untreated control; for Inhibition of the growth of the hypha in % with Coniophora puteana at an active compound concentration of 1 ppm: 1 ppm in agar; for Inhibition of the growth of the hypha in % with Coniophora puteana at an active compound concentration of 3 ppm: 3 ppm in agar; for Inhibition of the growth of the hypha in % with Coniophora puteana at an active compound concentration of 6 ppm: 6 ppm in agar
# Description: (§1) Inhibitory Test with Giant Colonies of Basidiomycetes.
# (§2) To produce a suitable preparation of active compound, 0.2 parts by weight of active compound are admixed with 99.8 parts by weight of the abovementioned solvent.
# (§3) An agar which has been prepared using malt extract peptone is mixed in the liquid state with the preparation of active compound at the particular desired application rate. After the agar has set, the resulting nutrient medium is incubated at 26° C. with pieces of mycelium which had been punched out of colonies of Coniophora puteana or Coriolus versicolor.
# (§4) Evaluation is carried out after 3 or 7 days' storage at 26° C. by measuring the growth of the hypha and scoring the resulting inhibition in percent in comparison to the untreated control. 0% means an inhibition of growth which corresponds to that of the untreated control, while an inhibition of growth of 100% means that no growth of the hypha is observed.
# Coriolus versicolor = test: Inhibitory test with giant colonies of Basidiomycetes (Coriolus versicolor); type: cell-based; settings: after 3 or 7 days at 26° C., vs untreated control; for Inhibition of the growth of the hypha in % with Coriolus versicolor at an active compound concentration of 1 ppm: 1 ppm in agar; for Inhibition of the growth of the hypha in % with Coriolus versicolor at an active compound concentration of 3 ppm: 3 ppm in agar; for Inhibition of the growth of the hypha in % with Coriolus versicolor at an active compound concentration of 6 ppm: 6 ppm in agar
# Description: as §1, §2, §3, §4
# Venturia inaequalis = test: Venturia test (apple)/protective (Example B, spray liquor concentration); type: in vivo; settings: protective, 100 ppm in spray liquor, evaluation 12 days after inoculation
# Description: Venturia Test (Apple)/Protective
# To produce a suitable preparation of active compound, 1 part by weight of active compound is mixed with the stated amounts of solvent and emulsifier, and the concentrate is diluted with water to the desired concentration.
# To test for protective activity, young plants are sprayed with the preparation of active compound until dew-moist. After the spray-coating has dried on, the plants are inoculated with an aqueous conidia suspension of the causative organism of apple scab Venturia inaequalis and then remain in an incubation cabin at 20° C. and 100% relative atmospheric humidity for 1 day.
# The plants are then placed in a greenhouse at 23° C. and a relative atmospheric humidity of approximately 70%.
# Evaluation is carried out 12 days after the inoculation. 0% means an efficacy which corresponds to that of the untreated control, while an efficacy of 100% means that no infection is observed.
Compound,Inhibition of the growth of the hypha in % with Coniophora puteana at an active compound concentration of 1 ppm (Coniophora puteana) [%],Inhibition of the growth of the hypha in % with Coniophora puteana at an active compound concentration of 3 ppm (Coniophora puteana) [%],Inhibition of the growth of the hypha in % with Coniophora puteana at an active compound concentration of 6 ppm (Coniophora puteana) [%],Inhibition of the growth of the hypha in % with Coriolus versicolor at an active compound concentration of 1 ppm (Coriolus versicolor) [%],Inhibition of the growth of the hypha in % with Coriolus versicolor at an active compound concentration of 3 ppm (Coriolus versicolor) [%],Inhibition of the growth of the hypha in % with Coriolus versicolor at an active compound concentration of 6 ppm (Coriolus versicolor) [%],Efficacy in % at an active compound concentration in the spray liquor of 100 ppm (Venturia inaequalis) [%]
CC1=C(C(=O)Nc2ccccc2OCc2ccc(C)cc2C)SCCO1 [Example 78],70,80,90,90,90,100,
Cc1ccc(OCc2ccccc2NC(=O)c2cn(C)nc2C(F)(F)F)c(C)c1 [Example 52],80,90,100,90,100,100,
Cc1nn(C)c(Cl)c1C(=O)Nc1ccccc1CSc1ccccc1 [Example 39],70,80,90,90,100,100,
Cn1cc(C(=O)Nc2ccccc2COc2ccccc2)c(C(F)F)n1 [Example 123],100,100,100,100,100,100,
Cc1nn(C)c(Cl)c1C(=O)Nc1ccccc1CSc1ccc(Cl)cc1 [Example 84],80,80,100,90,100,100,
Cc1nc(C(F)(F)F)c(C(=O)Nc2ccccc2CSc2ccccc2)s1 [Example 40],50,60,70,40,70,90,
Cc1nc(C(F)(F)F)c(C(=O)Nc2ccccc2CSc2ccc(Cl)cc2)s1 [Example 85],70,80,80,70,70,90,
Cc1nn(C)cc1C(=O)Nc1ccccc1C=Cc1ccccc1 [Example 18],70,100,100,70,100,100,
Cc1cccc(OCc2ccccc2NC(=O)c2cn(C)nc2C(F)(F)F)c1 [drawing 527],,,,,,,90
Cc1ccc(OCc2ccccc2NC(=O)c2cn(C)nc2C(F)F)cc1 [Example 119],100,100,100,100,100,100,
Cc1nc(C(F)(F)F)c(C(=O)Nc2ccccc2C=Cc2ccccc2)s1 [Example 5],70,80,100,70,90,100,
Cc1ccc(SCc2ccccc2NC(=O)c2c(C)nn(C)c2Cl)cc1 [Example 45],70,80,90,90,100,100,
CC1=C(C(=O)Nc2ccccc2COc2cccc(C)c2)SCCO1 [Example 142],70,90,100,90,90,100,
CC1=C(C(=O)Nc2ccccc2COc2ccc(C)cc2)SCCO1 [Example 143],80,90,100,100,100,100,
CC1=C(C(=O)Nc2ccccc2COc2ccccc2)SCCO1 [Example 141],80,100,100,90,100,100,
Cc1nn(C)cc1C(=O)Nc1ccccc1CSc1ccc(Cl)cc1 [Example 81],70,90,100,90,90,100,
Cc1cccc(OCc2ccccc2NC(=O)c2cn(C)nc2C(F)F)c1 [Example 139],100,100,100,100,100,100,
CC1=C(C(=O)Nc2ccccc2COc2ccccc2C)SCCO1 [Example 144],70,90,100,90,100,100,
